Laboratory results from US11312721B2 (priority 2015, dated 2022).
“Also recorded” adds a separate entry of the source. Where two headings read alike, the source gives them in different places.

Assays:
aged-impaired (AI) rats = assay: Radial Arm Maze (RAM) behavioral task, spatial memory retention; assay type: in vivo, rat; details: 3 mg/kg ip, two-hour delay RAM
Method: The effects of methyl 3,5-diphenylpyridazine-4-carboxylate on the in vivo spatial memory retention of aged-impaired (AI) rats were assessed in a Radial Arm Maze (RAM) behavioral task using vehicle control and four different dosage levels of methyl 3,5-diphenylpyridazine-4-carboxylate ([…]). RAM behavioral tasks were performed on eight AI rats. All five treatment conditions (vehicle and four dosage levels) were tested on all eight rats.
The RAM apparatus used consisted of eight equidistantly-spaced arms. An elevated maze arm (7 cm width×75 cm length) projected from each facet of an octagonal center platform (30 cm diameter, 51.5 cm height). Clear side walls on the arms were 10 cm high and were angled at […] to form a trough. A food well (4 cm diameter, 2 cm deep) was located at the distal end of each arm. Froot Loops™ (Kellogg Company) were used as rewards. Blocks constructed of Plexiglas™ (30 cm height×12 cm width) could be positioned to prevent entry to any arm. Numerous extra maze cues surrounding the apparatus were also provided.
The AI rats were initially subjected to a pre-training test (Chappell et al. Neuropharmacology 37: 481-487, 1998). The pre-training test consisted of a habituation phase (4 days), a training phase on the standard win-shift task (18 days) and another training phase (14 days) in which a brief delay was imposed between presentation of a subset of arms designated by the experimenter (e.g., 5 arms available and 3 arms blocked) and completion of the eight-arm win-shift task (i.e., with all eight arms available).
In the habituation phase, rats were familiarized to the maze for an 8-minute session on four consecutive days. In each of these sessions, food rewards were scattered on the RAM, initially on the center platform and arms and then progressively confined to the arms. After this habituation phase, a standard training protocol was used, in which a food pellet was located at the end of each arm. Rats received one trial each day for 18 days. Each daily trial terminated when all eight food pellets had been obtained or when either 16 choices were made or 15 minutes had elapsed. After completion of this training phase, a second training phase was carried out in which the memory demand was increased by imposing a brief delay during the trial. At the beginning of each trial, three arms of the eight-arm maze were blocked. Rats were allowed to obtain food on the five arms to which access was permitted during this initial “information phase” of the trial. Rats were then removed from the maze for 60 seconds, during which time the barriers on the maze were removed, thus allowing access to all eight arms. Rats were then placed back onto the center platform and allowed to obtain the remaining food rewards during this “retention test” phase of the trial. […]

GABAA α5 receptor = biological target: T1, GABAA α5 receptor (Rattus norvegicus, UniProt P19969); assay: GABAA α5 receptor occupancy in vivo with Ro 15-4513 tracer; design: species or system Long Evans rats
T1 construct: from tissue
Source text: (§1) Food and water were available ad libitum.

[1] = assay type: in vivo, Long Evans rats; details: i.v.
Method: as §1
For plasma exposures, blood samples were centrifuged at 14000 rpm for 16 minutes. After centrifuging, 50 ul of supernatant (plasma) from each sample was added to 200 μl of acetonitrile plus 0.1% formic acid. […] Samples were sonicated for 5 minutes in an ultrasonic water bath, followed by centrifugation for 30 minutes, at 16000 RPM. 100 ul of supernatant was removed from each sample vial and placed in a new glass auto sample vial, followed by the addition of 300 μl of sterile water (pH 6.5).
Additional studies were conducted in aged Long-Evans rats in order to determine the exposures at the behaviorally relevant doses in the cognition studies. Exposure in young Long-Evans rats was also determined to bridge with the receptor occupancy studies that were conducted in young Long-Evans rats. Exposures in young and aged Long-Evans rats were relatively similar (Table 4, FIG. 4).

α5-containing GABAA R = α5-containing GABAA R (Homo sapiens, UniProt P18507+P31644); details: (EC20); cited from earlier work
α5-containing GABAA R, sequence (P31644 32-462): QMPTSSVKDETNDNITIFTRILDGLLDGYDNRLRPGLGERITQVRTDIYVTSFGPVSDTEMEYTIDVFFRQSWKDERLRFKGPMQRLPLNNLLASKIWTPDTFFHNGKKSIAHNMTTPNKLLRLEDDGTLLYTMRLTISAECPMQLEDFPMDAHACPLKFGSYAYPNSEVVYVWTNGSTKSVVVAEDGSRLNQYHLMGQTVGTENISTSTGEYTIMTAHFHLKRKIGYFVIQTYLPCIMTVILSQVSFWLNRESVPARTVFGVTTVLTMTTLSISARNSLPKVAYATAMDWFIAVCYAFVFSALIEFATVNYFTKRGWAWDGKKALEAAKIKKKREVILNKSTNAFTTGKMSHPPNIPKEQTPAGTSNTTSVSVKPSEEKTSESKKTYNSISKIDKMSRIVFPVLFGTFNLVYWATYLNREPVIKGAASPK
α5-containing GABAA R, sequence (P28472 26-473 partner): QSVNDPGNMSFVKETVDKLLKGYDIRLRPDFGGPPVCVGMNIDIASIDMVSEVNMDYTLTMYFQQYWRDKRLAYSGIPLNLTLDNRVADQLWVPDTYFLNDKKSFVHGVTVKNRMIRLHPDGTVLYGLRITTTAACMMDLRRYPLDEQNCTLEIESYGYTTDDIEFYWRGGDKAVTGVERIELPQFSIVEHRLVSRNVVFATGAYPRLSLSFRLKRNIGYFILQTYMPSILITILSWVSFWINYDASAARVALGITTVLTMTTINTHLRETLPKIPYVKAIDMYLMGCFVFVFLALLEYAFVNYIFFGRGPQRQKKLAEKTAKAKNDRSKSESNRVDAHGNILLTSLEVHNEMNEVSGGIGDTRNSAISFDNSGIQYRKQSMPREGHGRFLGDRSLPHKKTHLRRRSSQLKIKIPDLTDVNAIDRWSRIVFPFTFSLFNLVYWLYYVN
α5-containing GABAA R, sequence (P18507 40-475): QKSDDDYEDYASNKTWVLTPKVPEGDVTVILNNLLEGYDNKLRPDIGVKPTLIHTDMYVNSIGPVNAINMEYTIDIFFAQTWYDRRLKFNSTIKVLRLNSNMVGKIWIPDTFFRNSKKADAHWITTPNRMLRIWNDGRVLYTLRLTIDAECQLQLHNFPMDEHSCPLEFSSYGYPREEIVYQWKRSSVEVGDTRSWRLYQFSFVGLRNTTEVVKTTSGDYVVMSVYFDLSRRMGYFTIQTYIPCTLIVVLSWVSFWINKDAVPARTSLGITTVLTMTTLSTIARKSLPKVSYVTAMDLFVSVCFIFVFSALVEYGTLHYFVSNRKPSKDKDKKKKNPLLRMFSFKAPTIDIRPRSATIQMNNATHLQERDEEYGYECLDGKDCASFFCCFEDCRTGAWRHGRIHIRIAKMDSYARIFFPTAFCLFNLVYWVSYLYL

T1 sequence (P19969 32-464 limits assumed): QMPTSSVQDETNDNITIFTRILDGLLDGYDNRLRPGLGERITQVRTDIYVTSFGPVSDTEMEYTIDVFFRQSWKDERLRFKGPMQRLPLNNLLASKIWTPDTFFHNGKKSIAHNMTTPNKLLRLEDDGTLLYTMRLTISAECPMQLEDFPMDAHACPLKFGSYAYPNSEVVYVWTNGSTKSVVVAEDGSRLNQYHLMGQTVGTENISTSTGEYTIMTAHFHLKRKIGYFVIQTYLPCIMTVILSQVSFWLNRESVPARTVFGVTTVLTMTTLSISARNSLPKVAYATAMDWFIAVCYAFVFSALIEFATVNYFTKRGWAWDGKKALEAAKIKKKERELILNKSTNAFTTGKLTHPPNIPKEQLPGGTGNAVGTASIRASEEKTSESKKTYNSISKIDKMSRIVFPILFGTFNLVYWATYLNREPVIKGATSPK

COC(=O)c1c(-c2ccccc2)cnnc1-c1ccccc1 [Methyl 3,5-diphenylpyridazine-4-carboxylate]
average no. of errors ± SEM in retention test (aged-impaired (AI) rats; AI rats): 1.31±0.40
memory performance relative to vehicle control (aged-impaired (AI) rats; t(7)=4.233, p=0.004): significantly improved memory performance
effect on Ro 15-4513 binding in hippocampus and cerebellum (GABAA α5 receptor; 0.01-10 mg/kg, i.v.): dose-dependently reduced Ro 15-4513 binding in hippocampus, without affecting cerebellum levels of Ro 15-4513; also recorded: blocked the binding of Ro154513 in the hippocampus but did not affect binding of Ro15413 in the cerebellum
RO required for cognitive efficacy in this model (GABAA α5 receptor; from exposure in aged rats at 3 mg/kg, i.p.): 30-40%
GABAA α5 receptors occupied at behaviorally active exposures (GABAA α5 receptor; hippocampus, exposures behaviorally active in aged-impaired rats): about 32%
ED50 of receptor occupancy, ratio method (GABAA α5 receptor; i.v., hippocampus/cerebellum ratio method): 1.8 mg/kg
receptor occupancy at 1 mg/kg (GABAA α5 receptor; rat, iv, 1 mg/kg, i.v., depending on method used to determine RO, read-out: receptor occupancy at an exposure of 180 ng/g in hippocampus): 32 to 39%
receptor occupancy at 10 mg/kg (GABAA α5 receptor; rat, iv, 10 mg/kg): > 90%
ED50 (GABAA α5 receptor; rat, iv, read-out: ED50 of receptor occupancy, using L-755,608 to define occupancy): 1.1 mg/kg
fold increase in hippocampal exposure ([1]; dose from 0.1 to 1 mg/kg): 12 fold
fold increase in hippocampal exposure ([1]; dose from 1 to 10 mg/kg): ~5 fold
fold increase in plasma exposure ([1]; dose from 1 to 10 mg/kg): 12 fold
α5 in vitro efficacy (α5-containing GABAA R): +27
